Like-named read-outs stand apart in the source and are kept apart here.
Tests used:
CYP3A4 = target: T1, CYP3A4 (Homo sapiens, UniProt P08684); assay: Inhibition of CYP3A4 (P450 Inhibition Kit CYP3A4/DBF); format: in vitro ADME
T1 construct: purchased BD Biosciences

[1] = Plasma concentration of inhibitor after a single subcutaneous injection; settings: rat, in vivo, sc
Experimental: Six week-old male Sprague-Dawley rats weighing approximately 220 g were obtained from Charles-River, Inc. (St-Constant, Qc., Canada). The animals were housed 3 per cage. A pharmacokinetic study was carried out following one subcutaneous (s.c.) injection of the inhibitor at one concentration (2.3 mg/kg of body weight in 0.5 mL of vehicle fluid). The inhibitor was first dissolved in ethanol (EtOH) and thereafter we added propylene glycol (PG) to obtain a final concentration of EtOH of 8%. During this experiment, the rats were housed individually and were fasted for 8 h before inhibitor injection but allowed free access to water. Blood samples for determination of inhibitor plasma concentration were collected at the jugular vein (0.4 mL by animal) at target intervals of 3, 7, 12 and 24 h post-dose for Compound V and 3 and 12 h for CC-156, from three rats per time point. After the collection at 7 h, a replacement fluid (0.9% sodium chloride injection USP) was injected in the rat. Blood samples were collected into Microvette potassium-EDTA (ethylenediamine tetraacetic acid)-coated tube (Sarstedt, Aktiegesellchaft & Co, Germany) and centrifuged at 3200 rpm for 10 minutes at 4° C. The plasma was collected and stored at −80° C. until analyzed by liquid chromatography/mass spectrometry/mass spectrometry (LC/MS/MS) analysis.
The concentration of the inhibitors (Compounds I and V) was determined by LC/MS/MS analysis using a procedure developed at CHUQ (CHUL)-Research Center (Québec, Qc, Canada). Briefly, for extraction from serum, 100 μL of serum sample is transferred to individual tubes and 600 μL of ammonium acetate (1 mM) is added. A methanolic solution (50 μL) containing a steroidal internal standard is then added to each tube. Samples are transferred on Strata-X SPE columns (Phenomenex, Torrance, Calif., USA), which have been conditioned with 2 mL of methanol and 2 mL of water. Each column is washed with 2 mL of methanol:water (10:90, v/v). The inhibitor is then eluted with 5 mL of methanol containing 5 mM ammonium acetate. Methanol is evaporated at 45° C. under inert atmosphere and the residue dissolved in 100 μL of methanol:water (85:15, v/v). For the steroid analysis, the HPLC system uses a 75×4.6-mm, 3 μm reversed-phase Luna Phenyl-Hexyl column (Phenomenex, Torrance, Calif., USA) at a flow rate of 0.8 mL/min. The inhibitor is detected using an API 3000 mass spectrometer, equipped with TurbolonSpray (Applied Biosystems, Canada). ESI in positive ion mode was used. The area under the curve (AUC) was calculated using the linear trapezoidal rule.

17β-HSD1 = target: T2, 17β-HSD1 (Homo sapiens, UniProt P14061); assay: Inhibition of 17β-HSD1 in T-47D intact cells (E1 into E2); format: cell-based; settings: for inhibition at 0.01 µM: read-out: Inhibition % (0.01 μM)
T2 construct: endogenous in cells; host or cells: T-47D
T2 sequence (P14061 1-328): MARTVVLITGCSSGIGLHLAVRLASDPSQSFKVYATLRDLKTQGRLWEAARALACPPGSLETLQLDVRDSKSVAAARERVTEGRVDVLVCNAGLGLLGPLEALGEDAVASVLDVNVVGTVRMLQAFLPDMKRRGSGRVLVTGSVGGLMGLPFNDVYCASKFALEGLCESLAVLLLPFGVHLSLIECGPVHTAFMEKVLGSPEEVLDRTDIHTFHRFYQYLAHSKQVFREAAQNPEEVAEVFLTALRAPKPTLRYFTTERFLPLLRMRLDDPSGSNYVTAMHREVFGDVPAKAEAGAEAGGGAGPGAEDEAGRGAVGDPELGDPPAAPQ
How it was run: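 Intact T-47D cells in medium with insulin and 5% charcoal-stripped FBS were incubated with inhibitor (0.1% ethanol) and 60 nM [14C]-estrone, in triplicate. Steroids were ether-extracted and separated by TLC, and [14C]-E1 to E2 conversion was quantified by radioimaging.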

MCF-7 cells = assay: Estrogenic activity in MCF-7 cells; format: cell-based, human; settings: 7 days, concentrations up to 5 μM
Experimental: MCF-7 cells were seeded with medium supplemented with insulin (50 ng/mL) and 5% dextran-coated charcoal treated FBS rather than 10% FBS to remove remaining hormones. Aliquots (100 μL) of the cell suspension were seeded in 96-well plates (3000 cells/well). […] Cells were grown either in the absence or presence of the compounds over a period of 7 days. Quantification of cell growth was determined by using the CellTiter 96®Aqueous Solution Cell Proliferation Assay (Promega, Nepean, ON, Canada) following the manufacturer's instructions. To determine the proliferative (estrogenic) activity, the cells were grown in the absence (control fixed as 100%) or presence of the tested compounds at the indicated concentrations.

T1 sequence (P08684 whole entry): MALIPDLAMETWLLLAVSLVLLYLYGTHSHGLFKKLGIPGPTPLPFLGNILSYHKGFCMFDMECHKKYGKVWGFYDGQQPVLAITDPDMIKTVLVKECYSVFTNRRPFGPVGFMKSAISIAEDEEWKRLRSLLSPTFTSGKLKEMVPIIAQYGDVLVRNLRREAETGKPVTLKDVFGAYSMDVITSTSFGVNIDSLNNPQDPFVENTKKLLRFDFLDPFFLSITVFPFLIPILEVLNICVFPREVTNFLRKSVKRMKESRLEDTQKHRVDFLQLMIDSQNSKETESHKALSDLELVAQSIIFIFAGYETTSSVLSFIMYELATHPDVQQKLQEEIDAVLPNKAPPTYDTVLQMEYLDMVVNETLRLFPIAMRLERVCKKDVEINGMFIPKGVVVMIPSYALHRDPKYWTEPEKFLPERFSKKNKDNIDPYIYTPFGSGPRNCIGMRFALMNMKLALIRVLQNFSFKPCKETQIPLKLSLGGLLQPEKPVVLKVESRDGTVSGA

| Compound | IC50 (CYP3A4; read-out: IC50 on CYP3A4) [µM] | time at which maximum plasma concentration (Cmax) was attained ([1]; 2.3 mg/kg) [h] | inhibition at 0.01 µM (17β-HSD1; T47D, [14C]-E1 (60 nM) into [14C]-E2, T-47D intact cells, 0.01 μM) [%] | inhibition at 0.1 µM (17β-HSD1; T47D, [14C]-E1 (60 nM) into [14C]-E2, T-47D intact cells, 0.1 μM, read-out: Inhibition % (0.1 μM)) [%] | estrogenic activity on MCF-7 cells (FIG. 1) (MCF-7 cells) | IC50 (CYP3A4) [µM] | concentration at 7 h ([1]; male, Sprague-Dawley, s.c. 2.3 mg/kg, 7 h) [ng/mL] | concentration at 12 h ([1]; male, Sprague-Dawley, s.c. 2.3 mg/kg, 12 h) [ng/mL] | concentration at 24 h ([1]; male, Sprague-Dawley, s.c. 2.3 mg/kg, 24 h) [ng/mL] | AUC(0-t) ([1]; male, Sprague-Dawley, s.c. 2.3 mg/kg, read-out: AUC0-24 h) [ng·h/mL] | inhibition at 0.01 µM (17β-HSD1; T47D) [%] | inhibition at 0.1 µM (17β-HSD1; T47D, read-out: Inhibition % (0.1 μM)) [%] | inhibition at 0.1 µM (17β-HSD1; T47D, read-out: Inhibition (0.1 μM)) [%] | inhibition at 1 µM (17β-HSD1; T47D, read-out: Inhibition (1 μM)) [%] | IC50 (17β-HSD1; T-47D intact cells, [14C]-E1 60 nM) [µM] |
| --- | --- | --- | --- | --- | --- | --- | --- | --- | --- | --- | --- | --- | --- | --- | --- |
| C[C@]12CC[C@@H]3c4ccc(O)cc4CC[C@H]3[C@@H]1C[C@H](Cc1cccc(C(N)=O)c1)[C@@H]2O [Compound I, 16β-(m-carbamoylbenzyl)estradiol, reference compound] | 1.52 ± 0.29 | 3 | 35 | 66 | strongly stimulated the estrogen sensitive MCF-7 cells | – | – | – | – | – | – | – | – | – | – |
| C[C@]12CC[C@@H]3c4ccc(CCBr)cc4CC[C@H]3[C@@H]1C[C@H](Cc1cccc(C(N)=O)c1)[C@@H]2O [Compound V, 3-{[(16β,17β)-3-(2-bromoethyl)-17-hydroxyestra-1(10),2,4-trien-16-yl]methyl}benzamide] | – | – | – | – | no estrogenicity | 4.06 ± 0.57 | 73.8 | 50.7 | 11.7 | 1150 | 23 | 49 | 56 | 89 | 0.068 |
